In patent publication US10005774B2, “Syk inhibitors” (Gilead Sciences, Inc., priority 2013, dated 2018):
pIC50: −log10 of the molar value. Read-outs that look alike come from different tables or passages of the source.

Molecular target: Syk (Homo sapiens, UniProt P43405)
Test: High Throughput Syk Biochemical Assay (KinEASE TR-FRET)
Conditions: 20 μM ATP, 1 μM biotinylated peptide, 0.015 nM Syk, 30 min at room temperature
Procedure: High Throughput Syk Biochemical Assay
Syk activity was measured using KinEASE (Cisbio), a time-resolved fluorescence resonance energy transfer (TR-FRET) immunoassay. In this assay. Syk-catalyzes the phosporylation of a XL665-labeled peptide substrate. Europium conjugated phospho-tyrosine specific antibody binds the resulting phosphorylated peptide. Formation of phosphorylated peptide is quantified by TR-FRET with Europium as the donor and XL665 the acceptor in a 2-step endpoint assay. In brief, test compounds serially diluted in DMSO were delivered into Corning white, low volume, non-binding 384 well plates using the Echo 550 acoustic liquid dispenser (Labcyte®). Syk enzyme and substrates were dispensed into assay plates using a Multi-Flo (Bio-Tek Instruments). […] Percent inhibition was calculated as follows: % Inhibition=100×(RatioSample−Ratio0% Inhibition)/(Ratio100% Inhibition−Ratio0% Inhibition)

[1] = table 'ALL NEW COMPOUNDS IN 2014', read-out: Syk IC50

Compound	pIC50 (TABLE D, read-out: IC50)	pIC50 [1]
CC(C)n1cc(-c2cc(O[C@H](C)[C@H]3CNC(=O)C3)c3ccnn3c2)cn1 [(R)-4-((R)-1-(6-(1-isopropyl-1H-pyrazol-4-yl)pyrazolo[1,5-a]pyridin-4-yloxy)ethyl)pyrrolidin-2-one]	8.38	
C[C@@H](Oc1cc(-c2cnn(C(C)(C)C)c2)cc2ncsc12)[C@H]1CNC(=O)C1 (stereo in doubt) [(R)-4-((R)-1-((5-(1-(tert-butyl)-1H-pyrazol-4-yl)benzo[d]thiazol-7-yl)oxy)ethyl)pyrrolidin-2-one]	9.05	
Cc1ncc(-c2cc(O[C@H](C)[C@H]3CNC(=O)C3)c3c(c2)ncn3C2CC2)[nH]1		7.68
C[C@@H](Oc1nc(-c2ccc3c(c2)OCCO3)cc2ncn(C3CC3)c12)[C@H]1CNC(=O)C1 [(R)-4-((R)-1-((3-cyclopropyl-6-(2,3-dihydrobenzo[b][1,4]dioxin-6-yl)-3H-imidazo[4,5-c]pyridin-4-yl)oxy)ethyl)pyrrolidin-2-one]		8.26
C[C@@H](Oc1nc(-c2ccc(N3CCN(C4COC4)CC3)cc2)cc2ncn(C)c12)[C@H]1CNC(=O)C1 [(R)-4-((R)-1-(3-methyl-6-(4-(4-(oxetan-3-yl)piperazin-1-yl)phenyl)-3H-imidazo[4,5-c]pyridin-4-yloxy)ethyl)pyrrolidin-2-one]	8.09	
C[C@@H](Oc1nc(-c2cnn(C3CCC3)c2)cc2ncn(C)c12)[C@H]1CNC(=O)C1 [(R)-4-((R)-1-(6-(1-cyclobutyl-1H-pyrazol-4-yl)-3-methyl-3H-imidazo[4,5-c]pyridin-4-yloxy)ethyl)pyrrolidin-2-one]	8.12	
C[C@@H](Oc1nc(-c2ccc(N3CCN(C(=O)OC(C)(C)C)CC3)cc2)cc2ncn(C)c12)[C@H]1CNC(=O)C1 [tert-butyl 4-(4-(3-methyl-4-((R)-1-((R)-5-oxopyrrolidin-3-yl)ethoxy)-3H-imidazo[4,5-c]pyridin-6-yl)phenyl)piperazine-1-carboxylate]	7.74	
CCOc1cc(-c2cc(O[C@H](C)[C@H]3CNC(=O)C3)c3c(c2)ncn3C2CC2)ccc1OC [(R)-4-((R)-1-((1-cyclopropyl-5-(3-ethoxy-4-methoxyphenyl)-1H-benzo[d]imidazol-7-yl)oxy)ethyl)pyrrolidin-2-one]		7.89
C[C@@H](Oc1nc(-c2ccc3c(cnn3C)c2)cc2ncn(C)c12)[C@H]1CNC(=O)C1 [(R)-4-((R)-1-((3-methyl-6-(1-methyl-1H-indazol-5-yl)-3H-imidazo[4,5-c]pyridin-4-yl)oxy)ethyl)pyrrolidin-2-one]	8.02	
CC(C)S(=O)(=O)N1CCN(c2ccc(-c3cc4ncn(C5CC5)c4c(O[C@H](C)[C@H]4CNC(=O)C4)n3)cc2)CC1 [(R)-4-((R)-1-((3-cyclopropyl-6-(4-(4-(isopropylsulfonyl)piperazin-1-yl)phenyl)-3H-imidazo[4,5-c]pyridin-4-yl)oxy)ethyl)pyrrolidin-2-one]		8.95
CC(=O)N1CCN(c2ccc(-c3cc4ncn(C)c4c(O[C@H](C)[C@H]4CNC(=O)C4)n3)cc2)CC1 [(R)-4-((R)-1-(6-(4-(4-acetylpiperazin-1-yl)phenyl)-3-methyl-3H-imidazo[4,5-c]pyridin-4-yloxy)ethyl)pyrrolidin-2-one]	8.50	
Cc1cc(-c2cc(O[C@H](C)[C@H]3CNC(=O)C3)c3c(c2)ncn3C2CC2)ccc1N1CCN(C2COC2)CC1 [(R)-4-((R)-1-((1-cyclopropyl-5-(3-methyl-4-(4-(oxetan-3-yl)piperazin-1-yl)phenyl)-1H-benzo[d]imidazol-7-yl)oxy)ethyl)pyrrolidin-2-one]		8.67

Continued, values first:

pIC50 (TABLE D, read-out: IC50)	pIC50 [1]	Compound
7.47		C[C@@H](Oc1nc(-c2ccccc2)cc2ncn(C)c12)[C@H]1CNC(=O)C1 [(R)-4-((R)-1-(3-methyl-6-phenyl-3H-imidazo[4,5-c]pyridin-4-yloxy)ethyl)pyrrolidin-2-one]
	7.61	C[C@@H](Oc1cc(-c2ccncn2)cc2ncn(C3CC3)c12)[C@H]1CNC(=O)C1 [(R)-4-((R)-1-((1-cyclopropyl-5-(pyrimidin-4-yl)-1H-benzo[d]imidazol-7-yl)oxy)ethyl)pyrrolidin-2-one]
8.83		C[C@H](Oc1cc(-c2cnc(C(C)(C)C)s2)cc2ncsc12)[C@@H]1CNC(=O)C1 (stereo in doubt) [(S)-4-((S)-1-((5-(2-(tert-butyl)thiazol-5-yl)benzo[d]thiazol-7-yl)oxy)ethyl)pyrrolidin-2-one]
	8.28	C[C@@H](Oc1nc(-c2ccc(N3CCN(C4COC4)CC3)c(C#N)c2)cc2ncn(C3CC3)c12)[C@H]1CNC(=O)C1 [5-(3-cyclopropyl-4-((R)-1-((R)-5-oxopyrrolidin-3-yl)ethoxy)-3H-imidazo[4,5-c]pyridin-6-yl)-2-(4-(oxetan-3-yl)piperazin-1-yl)benzonitrile]
7.38		Cc1c(-c2cc3ncn(C)c3c(O[C@H](C)[C@H]3CNC(=O)C3)n2)cnn1C [(R)-4-((R)-1-(6-(1,5-dimethyl-1H-pyrazol-4-yl)-3-methyl-3H-imidazo[4,5-c]pyridin-4-yloxy)ethyl)pyrrolidin-2-one]
	8.08	C[C@@H](Oc1nc(-c2cnn(-c3ccncc3)c2)cc2ncn(C3CC3)c12)[C@H]1CNC(=O)C1
	8.64	C[C@@H](Oc1nc(-c2ccc(C3CCN(C4COC4)CC3)cc2)cc2ncn(C3CC3)c12)[C@H]1CNC(=O)C1 [(R)-4-((R)-1-((3-cyclopropyl-6-(4-(1-(oxetan-3-yl)piperidin-4-yl)phenyl)-3H-imidazo[4,5-c]pyridin-4-yl)oxy)ethyl)pyrrolidin-2-one]
	8.28	COc1cc(-c2cc3ncn(C4CC4)c3c(O[C@H](C)[C@H]3CNC(=O)C3)n2)ccc1OC(F)F [(R)-4-((R)-1-((3-cyclopropyl-6-(4-(difluoromethoxy)-3-methoxyphenyl)-3H-imidazo[4,5-c]pyridin-4-yl)oxy)ethyl)pyrrolidin-2-one]
9.49		COc1ccc(-c2cn3ncc(Cl)c3c(O[C@H](C)[C@H]3CNC(=O)C3)n2)cc1OC [(R)-4-((R)-1-((3-chloro-6-(3,4-dimethoxyphenyl)pyrazolo[1,5-a]pyrazin-4-yl)oxy)ethyl)pyrrolidin-2-one]
8.91		C[C@@H](Oc1cc(-c2cnn(CC(F)F)c2)cc2ncsc12)[C@H]1CNC(=O)C1 (stereo in doubt) [(R)-4-((R)-1-((5-(1-(2,2-difluoroethyl)-1H-pyrazol-4-yl)benzo[d]thiazol-7-yl)oxy)ethyl)pyrrolidin-2-one]
7.27		COc1ccc(-c2cc3ncn(C4COC4)c3c(O[C@H](C)[C@H]3CNC(=O)C3)n2)cc1OC [(R)-4-((R)-1-(6-(3,4-dimethoxyphenyl)-3-(oxetan-3-yl)-3H-imidazo[4,5-c]pyridin-4-yloxy)ethyl)pyrrolidin-2-one]
7.56		C[C@@H](Oc1nc(-c2ccc(S(C)(=O)=O)cc2)cc2ncn(C)c12)[C@H]1CNC(=O)C1 [(R)-4-((R)-1-(3-methyl-6-(4-(methylsulfonyl)phenyl)-3H-imidazo[4,5-c]pyridin-4-yloxy)ethyl)pyrrolidin-2-one]
8.58		C[C@@H](Oc1cc(-c2ccc(N3CCN(C4CCOCC4)CC3)cn2)cc2ncsc12)[C@H]1CNC(=O)C1 (stereo in doubt) [(R)-4-((R)-1-((5-(5-(4-(tetrahydro-2H-pyran-4-yl)piperazin-1-yl)pyridin-2-yl)benzo[d]thiazol-7-yl)oxy)ethyl)pyrrolidin-2-one]
